± gives the standard deviation of the averaged measurements.
What was measured:
Details in all cases: treatment time: 3 days
[1] = system: UT-SCC-24A; experiment: drug sensitivity score (DSS); higher = more sensitive
Protocol: (§1)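 HNSCC cell lines (500 cells/well, 384-well) were cultured on plastic, on top of (2D) or embedded (3D) in Matrigel or human leiomyoma matrix Myogel (500 ug/mL; Myogel 3D mixed with rat collagen I). Cells were treated for 3 days with 5 ten-fold concentrations of each drug, and viability was read by CellTiter-Glo. Suffixes _1/_2/_3 on drug names are replicates.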

[2] = system: UT-SCC-106A; experiment: maximal % inhibition of viability relative to DMSO; higher = stronger effect
How it was run: (§2)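 Viability was read with CellTiter-Glo 2.0 luminescence and scaled against vehicle (0.1% DMSO) and cell-killing control wells. The assay used HPV-negative HNSCC cell lines at 500 cells/well in 384-well plates, grown on plastic, on Matrigel or Myogel coatings (500 µg/mL), or embedded in Matrigel or Myogel plus rat collagen I, and treated for 3 days at five 10-fold concentrations. IC50, maximal inhibition and drug sensitivity score were derived from percent-inhibition dose–response curves fitted in the FIMM pipeline.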

[3] = system: UT-SCC-44; experiment: as above
How it was run: as §2

[4] = system: UT-SCC-73; experiment: as above
How it was run: as §2

[5] = system: UT-SCC-24A; experiment: maximal % inhibition of viability relative to DMSO; higher = stronger effect
Protocol: as §1, with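 “CellTiter-Glo. Viability was normalised to DMSO (0% inhibition) and 100 uM benzethonium chloride (100% inhibition) controls and fitted with the FIMM DSRT pipeline to give IC50 (nM), maximal % inhibition and the drug sensitivity score (DSS).” for “CellTiter-Glo.”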

[6] = system: UT-SCC-106A; experiment: drug sensitivity score (DSS); higher = more sensitive; extreme values may be limits of the assay
How it was run: as §2

[7] = system: UT-SCC-14; experiment: as above
How it was run: as §2

[8] = system: UT-SCC-24B; experiment: as above
How it was run: as §2

[9] = system: UT-SCC-28; experiment: as above
How it was run: as §2

[10] = system: UT-SCC-40; experiment: as above
How it was run: as §2

[11] = system: UT-SCC-42A; experiment: as above
How it was run: as §2

[12] = system: UT-SCC-42B; experiment: as above
How it was run: as §2

[13] = system: UT-SCC-44; experiment: as above
How it was run: as §2

[14] = system: UT-SCC-73; experiment: as above
How it was run: as §2

[15] = system: UT-SCC-81; experiment: as above
How it was run: as §2

[16] = system: UT-SCC-8; experiment: as above
How it was run: as §2

[17] = culture condition: embedded in Matrigel
[18] = culture condition: embedded in Myogel + collagen I
[19] = culture condition: on top of Matrigel
[20] = culture condition: on top of Myogel
[21] = culture condition: plastic 2D (no matrix)

`Cn1c(=O)c(F)c(Nc2ccc(I)cc2F)c2c(=O)n(C[C@@H](O)CO)cnc21` [TAK-733] was tested, and the drug sensitivity score [1, 17] was 32.5 ± 1.7 DSS, the drug sensitivity score [1, 18] was 17 ± 1.9 DSS and the drug sensitivity score [1, 19] was 27 ± 0.5 DSS. For the same compound, the drug sensitivity score [1, 20] was 9.37 ± 1.8 DSS, the drug sensitivity score [1, 21] was 24.6 ± 0.76 DSS and the “maximal % inhibition of viability” value [2, 17] was 52.3 ± 2.4%. The “maximal % inhibition of viability” value [2, 18] was 19 ± 5.5%, the “maximal % inhibition of viability” value [2, 19] was 61.9 ± 4.9% and the “maximal % inhibition of viability” value [2, 20] was 17.8 ± 1.7%. The “maximal % inhibition of viability” value [2, 21] was 63.4 ± 1.2%, the “maximal % inhibition of viability” value [3, 17] was 75.4 ± 0.62% and the “maximal % inhibition of viability” value [3, 18] was 37.1 ± 8.1%. For the same compound, the “maximal % inhibition of viability” value [3, 19] was 64.6 ± 10%, the “maximal % inhibition of viability” value [3, 20] was 38.3 ± 4.8% and the “maximal % inhibition of viability” value [3, 21] was 53.6 ± 3.3%. The “maximal % inhibition of viability” value [4, 17] was 79.1 ± 1.5%, the “maximal % inhibition of viability” value [4, 18] was 48.3 ± 16% and the “maximal % inhibition of viability” value [4, 19] was 74.1 ± 1%. The “maximal % inhibition of viability” value [4, 20] was 59.9 ± 4.8%, the “maximal % inhibition of viability” value [4, 21] was 68.4 ± 3.9% and the “maximal % inhibition of viability” value [5, 17] was 81.5 ± 1.9%. The “maximal % inhibition of viability” value [5, 18] was 53.9 ± 2.1%, the “maximal % inhibition of viability” value [5, 19] was 77.7 ± 1.1% and the “maximal % inhibition of viability” value [5, 20] was 45.9 ± 4%. For the same compound, the “maximal % inhibition of viability” value [5, 21] was 70.6 ± 1.3%, the drug sensitivity score [6, 17] was 16.8 ± 1.1 DSS and the drug sensitivity score [6, 18] was 1.2 ± 0.56 DSS. It also gave a drug sensitivity score [6, 19] of 18.7 ± 0.38 DSS, a drug sensitivity score [6, 20] of 1.07 ± 1.1 DSS and a drug sensitivity score [6, 21] of 19 ± 1.2 DSS. It also gave a drug sensitivity score [7, 17] of 11.2 ± 3.2 DSS, a drug sensitivity score [7, 18] of 7.5 ± 1.5 DSS and a drug sensitivity score [7, 19] of 7.13 ± 0.64 DSS. It also gave a drug sensitivity score [7, 20] of 5 ± 0.98 DSS, a drug sensitivity score [7, 21] of 2.67 ± 3 DSS and a drug sensitivity score [8, 17] of 9.43 ± 5.1 DSS. For the same compound, the drug sensitivity score [8, 18] was 8.77 ± 1.4 DSS, the drug sensitivity score [8, 19] was 10 ± 1.8 DSS and the drug sensitivity score [8, 20] was 5.97 ± 2.3 DSS. It also gave a drug sensitivity score [8, 21] of 13 ± 6 DSS, a drug sensitivity score [9, 17] of 9.3 ± 2.7 DSS and a drug sensitivity score [9, 18] of 0.8 ± 1.4 DSS. For the same compound, the drug sensitivity score [9, 19] was 10.8 ± 2.5 DSS, the drug sensitivity score [9, 21] was 5 ± 1.4 DSS and the drug sensitivity score [10, 17] was 24 ± 0.56 DSS. For the same compound, the drug sensitivity score [10, 18] was 16.2 ± 2.5 DSS, the drug sensitivity score [10, 19] was 20.2 ± 1.5 DSS and the drug sensitivity score [10, 20] was 10 ± 0.56 DSS. It also gave a drug sensitivity score [10, 21] of 11.6 ± 1.3 DSS, a drug sensitivity score [11, 17] of 16.7 ± 2 DSS and a drug sensitivity score [11, 18] of 8.73 ± 7.5 DSS. For the same compound, the drug sensitivity score [11, 19] was 16 ± 1.3 DSS, the drug sensitivity score [11, 20] was 9.63 ± 2.4 DSS and the drug sensitivity score [11, 21] was 11.4 ± 1.6 DSS. It also gave a drug sensitivity score [12, 17] of 24.1 ± 2.8 DSS, a drug sensitivity score [12, 19] of 12.4 ± 1.9 DSS and a drug sensitivity score [12, 20] of 2.6 ± 0.1 DSS. For the same compound, the drug sensitivity score [12, 21] was 6.27 ± 1.4 DSS, the drug sensitivity score [13, 17] was 21.6 ± 1.5 DSS and the drug sensitivity score [13, 18] was 3.67 ± 1.4 DSS. The drug sensitivity score [13, 19] was 14.8 ± 1.2 DSS, the drug sensitivity score [13, 20] was 5.27 ± 2.8 DSS and the drug sensitivity score [13, 21] was 12.9 ± 0.4 DSS. For the same compound, the drug sensitivity score [14, 17] was 24.7 ± 0.5 DSS, the drug sensitivity score [14, 18] was 13.8 ± 6 DSS and the drug sensitivity score [14, 19] was 21.4 ± 1.6 DSS. For the same compound, the drug sensitivity score [14, 20] was 12.9 ± 0.38 DSS, the drug sensitivity score [14, 21] was 17.5 ± 1.3 DSS and the drug sensitivity score [15, 17] was 28.8 ± 3.6 DSS. For the same compound, the drug sensitivity score [15, 18] was 3.93 ± 2.7 DSS, the drug sensitivity score [15, 19] was 19.6 ± 1.2 DSS and the drug sensitivity score [15, 20] was 2.63 ± 2.3 DSS. For the same compound, the drug sensitivity score [15, 21] was 2.9 ± 0.17 DSS, the drug sensitivity score [16, 17] was 13.6 ± 2.6 DSS and the drug sensitivity score [16, 18] was 2.3 ± 2.6 DSS. The drug sensitivity score [16, 19] was 8.03 ± 4.5 DSS, the drug sensitivity score [16, 20] was 7.53 ± 4.9 DSS and the drug sensitivity score [16, 21] was 7.07 ± 2.1 DSS.

Reference: the supplement of paper PMC7017272
